The experiment concerns HUVEC. Put plainly: In vitro endothelial cell proliferation assay. It is filed as cell-based, Human. The note with it: for effect on anti-kringle 2 (7VPA) induced HUVEC proliferation: HUVEC stimulated with 700 nM (or 1400 nM) 7VPA, simultaneous addition. As for the experimental part: Human umbilical vein endothelial cells (HUVEC) were purchased from Clonetics or isolated from umbilical vein cords by mild collagenase treatment as described and cultured in M199 with Earle's salts (Sigma) with 20% heat inactivated fetal bovine serum (Sigma), 100 IU/mL penicillin 100 μg/mL streptomycin (Gibco), 250 ng/mL fungizone (Gibco), 2 mM glutamine (Gibco), 5 IU/mL heparin (Sigma) and 50 μg/mL ECGS (Technoclone, Vienna, Austria). Human vascular smooth muscle cells (HVSMC) were isolated as described.
3×10^3 cells were plated in 96-well plates and allowed to attach overnight. Growth was arrested by incubation with 100 μL reduced growth medium (M199 with 2% FBS) for 24 h. Thereafter anti-tPA antibodies and other reagents were added to wells. K2P (Reteplase), anti-kringle 2 (7VPA) and anti-finger/EGF antibodies (3VPA and 6VPA) were a gift from Technoclone, Vienna, Austria. Anti-kringle 1 (PAM-2), anti-kringle 2 (ESP1) and anti-protease (374B and ESP2) antibodies were purchased from American Diagnostica, Alpha Labs, UK. D-mannitol and LY294002 were obtained from Sigma. VEGF121 and bFGF were purchased from R&D Systems Inc., UK. Recombinant single chain tPA (rsctPA) was obtained from Boehringher Ingelheim. The mutant alatPA was kindly provided by Prof. Roger Lijnen (Center for Molecular and Vascular Biology, Leuven, Belgium). Aprotinin was purchased from Boehringer Mannheim. The tPA peptides (tPA I and tPA II) corresponding to residues 7-17 and 15-26 respectively were synthesized by the Clinical Sciences Centre peptide synthesis facility at Hammersmith and the ICRF peptide unit. Rp-cAMPS and Lavendustin A were obtained from Calbiochem, UK. After 4 days of incubation cell number was quantified colorimetrically by the addition of 20 μL CellTiter 96 AQueous One Solution Cell Proliferation Assay (Promega) at 492 nm and 620 nm reference filter. Background absorbance was determined with substrate alone and subtracted from all wells.
HUVEC were plated at 1×10^5 cells in 12 well plates overnight. Medium was replaced with reduced growth medium overnight followed by addition of anti-K2 antibody. Control wells contained M199 and 2% FBS alone. After 3 days incubation cells were counted in a hemocytometer.

Take `Nc1ncnc2c1ncn2[C@@H]1O[C@@H]2CO[P@@](O)(=S)O[C@H]2[C@H]1O` [Rp-cAMPS, reference compound]: the “effect on anti-kringle 2 (7VPA) induced HUVEC proliferation” value (4 days) is reported as “could inhibit”.
For aprotinin [reference compound], the “effect on anti-kringle 2 (7VPA) induced HUVEC proliferation” value (4 days) was “could not block”.
For `OC[C@@H](O)[C@@H](O)[C@H](O)[C@H](O)CO` [mannitol, D-mannitol, reference compound], for the setting “M199 with 2% FBS, 4 days, colorimetric”, the “effect on basal HUVEC/EC growth (substance alone)” value is “No effect”.
angiostatin [reference compound]: the “concentration giving 50% inhibition” value (HUVEC growth, bFGF 10 ng/mL (FIG. 4B)) amounted to 45 µg/mL.
On to `O=C(O)c1cc(N(Cc2ccccc2O)Cc2cc(O)ccc2O)ccc1O` [Lavendustin A, reference compound], for which the “effect on anti-kringle 2 (7VPA) induced HUVEC proliferation” value (4 days) is on record as “could inhibit”.

For the origin of these results see patent US20040071707A1, “Modulation of cell growth” (priority 2000, published 2004).
